| Compound | melting point |
| --- | --- |
| O=NN(c1ccccc1)c1ccccc1 | 66.5 °C |
| NC(=S)Nc1cccc2ccccc12 | 193 to 197 °C |
| O=C(Cl)c1csc(-c2cccc(Cl)c2Cl)n1 | 108 to 111 °C |
| COc1ccc(C(=O)c2ccccc2Cl)cc1OC | 125 to 126 °C |
| CC[C@H](C)[C@H](NC(=O)OC(C)(C)C)C(=O)O | 69 °C |
| Cc1nnc(SCc2ccccc2)n1N=Cc1ccccc1Cl | 121 to 123 °C |
| Clc1ccc(SCSc2ccc(Cl)cc2)cc1 | 47 °C |
| Cc1cc(C(F)(F)F)c2c(N)c(C#N)sc2n1 | 182 to 184 °C |
| Cc1cc(=O)oc(C)c1C(=O)Oc1cccc(Cl)c1 | 96 °C |
| CC(=O)c1ccc(CO)cc1 | 54 °C |
| C#CCCCCCCC | -50 °C |
| O=Cc1cccc(CBr)c1 | 49 to 51 °C |
| N#Cc1sc(Br)c2c1OCCO2 | 149 to 150 °C |
| Oc1ncnc2[nH]ncc12 | 350 °C |
| O=P(N1CCOCC1)(N1CCOCC1)N1CCOCC1 | 190 °C |
| CC(C)CS | -145 °C |
| Nc1csc2nccnc12 | 88 to 89 °C |
| C[Si](C)(C)O[Si](C)(C)C | -59 °C |
| COc1cc(C=O)ccc1OCc1c(F)cccc1Cl | 124 to 126 °C |
| CC1CCCC(C)(C)C1=O (stereo not drawn) | -31.8 °C |
| CC(=O)C=Cc1oc2ccc([N+](=O)[O-])cc2c1-c1ccc(C)o1 | 178 °C |
| FC(F)(F)N1C(F)(F)C(F)(F)OC(F)(F)C1(F)F | -80 °C |

| Compound | melting point |
| --- | --- |
| OCc1cccc(-c2cccs2)c1 | 46 to 49 °C |
| O=[N+]([O-])c1ccc(C=Cc2ccc([N+](=O)[O-])cc2)cc1 | 183 °C |
| O=C1NC(=S)NC(=O)C1=NNc1ccccc1 | 290 °C |
| CC(=O)Nc1c(I)c(NC(C)=O)c(I)c(C(=O)O)c1I | 300 °C |
| OCc1ccccc1S | 32 °C |
| O=C(O)/C(=C/c1ccccc1[N+](=O)[O-])c1ccc([N+](=O)[O-])cc1 | 184 °C |
| Cc1ccc(OCC(=O)O)cc1C | 163 °C |
| CCC12CCCN(CCc3c([nH]c4ccccc34)CC1)C2 (stereo not drawn) | 146 °C |
| C=C(CCl)CCl | 14 °C |
| OC(c1ccccc1)(c1ccccc1)[C@@H](c1ccccc1)N1CCCCC1 | 158 °C |
| Cc1ccc(S(=O)(=O)c2ncsc2SCC(N)=O)cc1 | 204 to 206 °C |
| Nc1ccc(N)c2ccccc12 | 120 °C |
| OC1COC2C(O)COC12 (stereo not drawn) | 88 °C |
| Cc1onc(-c2c(Cl)cccc2Cl)c1C(N)=O | 166 to 168 °C |
| Nc1c(Cl)cc(F)cc1Br | 56 °C |
| CCCC1COC(Cn2cncn2)(c2ccc(Cl)cc2Cl)O1 (stereo not drawn) | < 25 °C |
| COC(=O)c1ccc2cc[nH]c2c1 | 79 °C |
| CC(C)(C(=O)O)C1=CCC2(C)C(CCC3C4CCC(O)C4(C)CCC32)C1 (stereo not drawn) | 264 °C |
| CC(O)CCc1ccc2c(c1)N(C(=O)c1ccccc1)C(C)CC2 (stereo not drawn) | 77 °C |
| Nc1nc(Cl)c2nc[nH]c2n1 | 300 °C |
| COc1cccc(C=C[N+](=O)[O-])c1OC | 83 to 85 °C |
| Cc1ccc(C(=O)c2ccccc2N)cc1 | 91 to 94 °C |

| Compound | melting point |
| --- | --- |
| CC(C)(C)OC(=O)N1CCN(c2ccc(I)cc2)CC1 | 150 to 151 °C |
| Cc1csc2c(Cl)ncnc12 | 124 to 125 °C |
| OCc1c(F)cccc1Cl | 43 °C |
| Cc1cccc(C=CC(=O)O)c1 | 116 to 119 °C |
| COc1cc2c(cc1OCc1ccccc1)C(C)N(C)CC2 (stereo not drawn) | 82 °C |
| N#Cc1c[nH]cc1-c1cccc(Cl)c1Cl | 150 °C |
| COC(=O)c1cc2ccccc2n1C(=O)OC(C)(C)C | 66 to 67 °C |
| Cc1cc2c(s1)=Nc1ccccc1NC=2N1CCN(C)CC1 | 195 °C |
| CN1CCc2cc3c(cc2C1C1OC(=O)c2c1ccc1c2OCO1)OCO3 (stereo not drawn) | 194 °C |
| COC(=O)Cc1ccc(O)cc1 | 57 °C |
| O=[N+]([O-])c1c(O)c(Cl)cc(Cl)c1Cl | 92.5 °C |
| O=C(O)C1CCC1C(=O)O (stereo not drawn) | 131 °C |
| O=C(O)c1cc(S(=O)(=O)O)ccc1O | 120 °C |
| ClCCCCCCCCCCCCCl | 29 °C |
| O=C1OC(c2cc(Br)c(O)c(Br)c2)(c2cc(Br)c(O)c(Br)c2)c2ccccc21 | 296 °C |
| CS(=O)(=O)Nc1ccccc1 | 93 to 97 °C |
| NC(CC(F)(F)F)C(=O)O (stereo not drawn) | 256 to 258 °C |
| CC1=NNC(=O)N(N=Cc2cccnc2)C1 | 217 °C |
| Nc1nc[nH]c(=O)n1 | 300 °C |
| NC(=O)NC(=O)Cc1ccccc1 | 215 °C |
| COC(=O)c1cc(C(=O)O)cc([N+](=O)[O-])c1 | 183 °C |
| COc1ccc(C2(C)CCc3oc4ccccc4c3-c3oc(C)cc32)cc1 (stereo not drawn) | 145 °C |

| Compound | melting point |
| --- | --- |
| CC(Cc1ccccc1)NCCC(c1ccccc1)c1ccccc1 (stereo not drawn) | 38 °C |
| c1ccc2[nH]ncc2c1 | 148 °C |
| S=c1[nH]ccn1-c1ccc(Cl)cc1 | 223 to 226 °C |
| CCOC(=O)NNC(=O)OCC | 135 °C |
| Cc1nc(NC(=O)NS(=O)(=O)c2cccs2)nc(Cl)c1C | 201 to 203 °C |
| CCOC(=O)/C=C/[C@@H]1[C@@H](c2ccccc2)N1C(=O)c1ccccc1 | 118 °C |
| CCC(C)(c1ccc(O)cc1)c1ccc(O)cc1 | 120 °C |
| COc1cc(N=C=O)cc(OC)c1 | 34 to 35.5 °C |
| Cc1ncc(COP(=O)(O)O)c(C=O)c1O | 255 °C |
| Nc1ccccc1N1CCNCC1 | 115 °C |
| COc1c(Cl)cc(Cl)c(OC)c1C(N)=O | 148 to 149 °C |
| O=S(=O)(Cl)c1ccc2c(c1)CCO2 | 84 to 85 °C |
| C/C=C/C1Nn2c(nnc2-c2cccc([N+](=O)[O-])c2)S1 (stereo not drawn) | 222 to 224 °C |
| O=C(C=Cc1ccc(F)cc1)C=Cc1ccc(F)cc1 | 141 to 146 °C |
| CCOC(=O)c1c(SC)nn(C(=O)c2cccc(C)c2)c1C | 115 °C |
| O=C(CCCl)c1ccccc1 | 48.5 °C |
| Cc1ccc(C(C)CCC(=O)O)cc1 (stereo not drawn) | 42 °C |
| Fc1cccc(F)c1CBr | 51 to 55 °C |
| O=[N+]([O-])c1cc(C(F)(F)F)ccc1N1CCCCC1 | 48 to 50 °C |
| OCc1cc(OCc2ccccc2)cc(OCc2ccccc2)c1 | 78 to 82 °C |
| O=C(NCCc1ccccn1)c1cc([N+](=O)[O-])cc([N+](=O)[O-])c1 | 120 °C |

The next lines start with the values.

| melting point | Compound |
| --- | --- |
| 105 to 110 °C | CC(C)(C)OC(=O)N1CC[C@H]1C(=O)O |
| 225 to 227 °C | Cc1ccc(-c2onc(C(=O)c3ccc([N+](=O)[O-])cc3)c2S(=O)(=O)c2ccccc2)cc1 |
| 158 to 160 °C | CC1=C(C(=O)OCc2ccccc2)C(c2ccc3c(c2)OCO3)NC(=O)N1 (stereo not drawn) |
| 174 °C | O=C(O)c1ccc(OCC(F)(F)F)nc1 |
| 251 °C | O=C1Nc2ccc([N+](=O)[O-])cc2C1=O |
| 139 to 140 °C | COC(=O)c1cc2occc2[nH]1 |
| 34 to 42 °C | COC(=O)CC(=O)c1cccnc1 |
| 280 °C | O=C1c2cccc(O)c2C(=O)c2cccc(O)c21 |
| 139 °C | CCOC(=O)/C(=N\Nc1ccc(C)cc1C)C(=O)C(F)(F)F |
| 119 °C | CC(=O)OCC(OC(C)=O)C(OC(C)=O)C(OC(C)=O)C(OC(C)=O)C(OC(C)=O)OC(C)=O (stereo not drawn) |
| 152 to 153 °C | CSC(S)=NCc1ccc(CN)cc1 |
| 238 °C | Cn1c(=O)c(C2=NNC(=O)C2=CC=Cc2ccccc2)c(O)c2ccccc21 |
| 96 to 103 °C | S=C(n1ccnc1)n1ccnc1 |
| 154 to 155 °C | COC(=O)c1ccc2c(I)cn(C(=O)OC(C)(C)C)c2c1 |
| 42 to 43.5 °C | O=Cc1cccc2ccsc12 |
| 188 °C | N#Cc1cc([N+](=O)[O-])cc(Br)c1N |
| 60 °C | Cc1ccccc1OC(=O)Oc1ccccc1C |
| 79 °C | COc1cc(N)c(C(c2ccc(C)o2)c2ccc(C)o2)cc1OC |
| 46 to 47 °C | FC(F)(F)c1ccc(Br)nc1 |
| 24 to 27 °C | O=C(c1ccc(F)cc1)C(F)(F)F |
| 92 °C | Cc1c[nH]c(C)n1 |
| 194 °C | NC(=O)C1CCCN1C(=O)COC(=O)c1ccccc1 (stereo not drawn) |
| 80 to 82 °C | O=Cc1[nH]ncc1Br |

| melting point | Compound |
| --- | --- |
| 290 °C | CCOC(=O)c1cnc2cc(OCC(C)C)c(OCC(C)C)cc2c1O |
| 195 °C | CC(=O)NC(Cc1c[nH]c2ccccc12)C(N)=O (stereo not drawn) |
| 71 to 72 °C | CC(C)(C)OC(=O)NCc1ccsc1Br |
| 140 to 144 °C | NC(=S)c1ccc2c(c1)OCCO2 |
| 168 to 170 °C | O=C(O)c1cc(S(=O)(=O)Cl)ccc1O |
| 96 to 99 °C | S=C(Oc1ccccn1)Oc1ccccn1 |
| 144 °C | O=C1c2ccccc2C(=O)N1CO |
| 68 °C | CC(=O)Oc1ccc(OC(C)=O)c(-c2ccccc2)c1 |
| 105 to 110 °C | CC1CCC(=O)C1=O (stereo not drawn) |
| 160 to 162 °C | N#Cc1ccc(OCc2ccc3nonc3c2)cc1 |
| -43 °C | CCCCCCOCCCCCC |
| 58 °C | COc1ccc(C(F)(F)F)cc1N |
| 102 °C | COc1c(OC)c(OC(C)=O)c2cc(F)ccc2c1OC(C)=O |
| 104 °C | Clc1c2ccccc2cc2ccccc12 |
| 105 °C | CC(=O)CC(=O)Nc1ccccc1Cl |
| 96 °C | CC(=O)C(C=N)c1ccccc1 (stereo not drawn) |
| 107 °C | Cc1ccc(O)c([N+](=O)[O-])n1 |
| 84 to 86 °C | COc1cc(I)c(OC)cc1C |
| 67.5 °C | CC1(C)C2CC3C(C2)C31C |
| 168 °C | O=C(O)CNC(=O)c1ccccc1O |
| 173 to 176 °C | Cc1onc(-c2c(Cl)cccc2Cl)c1C(N)=S |
| 293 to 295 °C | Cc1ccc(C#N)c(=O)[nH]1 |
| 236 °C | O=C(O)c1cc2ccsc2s1 |

From a melting point compilation (Tetko et al.)
